System: Detoxification protein genes
Assay: DNA chip mRNA expression in yeast, detoxification protein genes (Table 8)
Assay type: cell-based, Saccharomyces cerevisiae S288C
In short: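 In this screen, yeast in logarithmic growth are challenged for two hours with a toxic substance at a non-lethal inhibitory concentration. Their mRNA, converted to Cy3- or Cy5-labeled cDNA, hybridizes at 65° C. to a chip spanning every yeast gene, and expression is expressed as a ratio to untreated cells.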

In the case of `Cl[C@H]1[C@H](Cl)[C@@H](Cl)[C@@H](Cl)[C@H](Cl)[C@H]1Cl` [(7), γ-hexachlorocyclohexane], the “The level of expressed mRNA in the presence of chemical substance/The level of expressed mRNA in the absence of chemical substance” value (yeast gene YBL064C) is reported as 2.5, the “The level of expressed mRNA in the presence of chemical substance/The level of expressed mRNA in the absence of chemical substance” value (yeast gene YBR008C) is reported as 0.9 and the “The level of expressed mRNA in the presence of chemical substance/The level of expressed mRNA in the absence of chemical substance” value (yeast gene YBR145W) is reported as 58.8. For the same compound, the “The level of expressed mRNA in the presence of chemical substance/The level of expressed mRNA in the absence of chemical substance” value (yeast gene YBR244W) was 0.6, the “The level of expressed mRNA in the presence of chemical substance/The level of expressed mRNA in the absence of chemical substance” value (yeast gene YBR293W) was 0.9 and the “The level of expressed mRNA in the presence of chemical substance/The level of expressed mRNA in the absence of chemical substance” value (yeast gene YCL035C) was 2.7. The “The level of expressed mRNA in the presence of chemical substance/The level of expressed mRNA in the absence of chemical substance” value (yeast gene YCL069W) was 1.4, the “The level of expressed mRNA in the presence of chemical substance/The level of expressed mRNA in the absence of chemical substance” value (yeast gene YCR083W) was 1.8 and the “The level of expressed mRNA in the presence of chemical substance/The level of expressed mRNA in the absence of chemical substance” value (yeast gene YDL100C) was 1.6. The “The level of expressed mRNA in the presence of chemical substance/The level of expressed mRNA in the absence of chemical substance” value (yeast gene YDL168W) was 1.1, the “The level of expressed mRNA in the presence of chemical substance/The level of expressed mRNA in the absence of chemical substance” value (yeast gene YDR256C) was 0.6 and the “The level of expressed mRNA in the presence of chemical substance/The level of expressed mRNA in the absence of chemical substance” value (yeast gene YDR453C) was 1.0. For the same compound, the “The level of expressed mRNA in the presence of chemical substance/The level of expressed mRNA in the absence of chemical substance” value (yeast gene YDR513W) was 1.6, the “The level of expressed mRNA in the presence of chemical substance/The level of expressed mRNA in the absence of chemical substance” value (yeast gene YDR538W) was 1.2 and the “The level of expressed mRNA in the presence of chemical substance/The level of expressed mRNA in the absence of chemical substance” value (yeast gene YEL027W) was 0.8. For the same compound, the “The level of expressed mRNA in the presence of chemical substance/The level of expressed mRNA in the absence of chemical substance” value (yeast gene YEL065W) was 4.3, the “The level of expressed mRNA in the presence of chemical substance/The level of expressed mRNA in the absence of chemical substance” value (yeast gene YER185W) was 1.1 and the “The level of expressed mRNA in the presence of chemical substance/The level of expressed mRNA in the absence of chemical substance” value (yeast gene YFL050C) was 0.8. The “The level of expressed mRNA in the presence of chemical substance/The level of expressed mRNA in the absence of chemical substance” value (yeast gene YGL013C) was 0.9, the “The level of expressed mRNA in the presence of chemical substance/The level of expressed mRNA in the absence of chemical substance” value (yeast gene YGL254W) was 1.3 and the “The level of expressed mRNA in the presence of chemical substance/The level of expressed mRNA in the absence of chemical substance” value (yeast gene YGR088W) was 0.8. The “The level of expressed mRNA in the presence of chemical substance/The level of expressed mRNA in the absence of chemical substance” value (yeast gene YGR138C) was 0.7, the “The level of expressed mRNA in the presence of chemical substance/The level of expressed mRNA in the absence of chemical substance” value (yeast gene YGR197C) was 1.3 and the “The level of expressed mRNA in the presence of chemical substance/The level of expressed mRNA in the absence of chemical substance” value (yeast gene YGR209C) was 1.7. The “The level of expressed mRNA in the presence of chemical substance/The level of expressed mRNA in the absence of chemical substance” value (yeast gene YGR224W) was 0.4, the “The level of expressed mRNA in the presence of chemical substance/The level of expressed mRNA in the absence of chemical substance” value (yeast gene YHL040C) was 4.0 and the “The level of expressed mRNA in the presence of chemical substance/The level of expressed mRNA in the absence of chemical substance” value (yeast gene YHL047C) was 16.8. For the same compound, the “The level of expressed mRNA in the presence of chemical substance/The level of expressed mRNA in the absence of chemical substance” value (yeast gene YHR008C) was 0.7, the “The level of expressed mRNA in the presence of chemical substance/The level of expressed mRNA in the absence of chemical substance” value (yeast gene YHR048W) was 0.8 and the “The level of expressed mRNA in the presence of chemical substance/The level of expressed mRNA in the absence of chemical substance” value (yeast gene YHR053C) was 1.2. For the same compound, the “The level of expressed mRNA in the presence of chemical substance/The level of expressed mRNA in the absence of chemical substance” value (yeast gene YHR055C) was 1.1, the “The level of expressed mRNA in the presence of chemical substance/The level of expressed mRNA in the absence of chemical substance” value (yeast gene YIR002C) was 1.3 and the “The level of expressed mRNA in the presence of chemical substance/The level of expressed mRNA in the absence of chemical substance” value (yeast gene YIR038C) was 2.0. The “The level of expressed mRNA in the presence of chemical substance/The level of expressed mRNA in the absence of chemical substance” value (yeast gene YJL101C) was 1.0, the “The level of expressed mRNA in the presence of chemical substance/The level of expressed mRNA in the absence of chemical substance” value (yeast gene YJR104C) was 1.1 and the “The level of expressed mRNA in the presence of chemical substance/The level of expressed mRNA in the absence of chemical substance” value (yeast gene YKL026C) was 2.5. The “The level of expressed mRNA in the presence of chemical substance/The level of expressed mRNA in the absence of chemical substance” value (yeast gene YKL064W) was 1.1, the “The level of expressed mRNA in the presence of chemical substance/The level of expressed mRNA in the absence of chemical substance” value (yeast gene YKR066C) was 0.5 and the “The level of expressed mRNA in the presence of chemical substance/The level of expressed mRNA in the absence of chemical substance” value (yeast gene YKR105C) was 1.0. The “The level of expressed mRNA in the presence of chemical substance/The level of expressed mRNA in the absence of chemical substance” value (yeast gene YKR106W) was 0.9, the “The level of expressed mRNA in the presence of chemical substance/The level of expressed mRNA in the absence of chemical substance” value (yeast gene YLL028W) was 1.0 and the “The level of expressed mRNA in the presence of chemical substance/The level of expressed mRNA in the absence of chemical substance” value (yeast gene YLL057C) was 1.6. For the same compound, the “The level of expressed mRNA in the presence of chemical substance/The level of expressed mRNA in the absence of chemical substance” value (yeast gene YLL060C) was 2.0, the “The level of expressed mRNA in the presence of chemical substance/The level of expressed mRNA in the absence of chemical substance” value (yeast gene YLR043C) was 2.6 and the “The level of expressed mRNA in the presence of chemical substance/The level of expressed mRNA in the absence of chemical substance” value (yeast gene YLR046C) was 1.5. The “The level of expressed mRNA in the presence of chemical substance/The level of expressed mRNA in the absence of chemical substance” value (yeast gene YML028W) was 0.8, the “The level of expressed mRNA in the presence of chemical substance/The level of expressed mRNA in the absence of chemical substance” value (yeast gene YML116W) was 1.4 and the “The level of expressed mRNA in the presence of chemical substance/The level of expressed mRNA in the absence of chemical substance” value (yeast gene YMR015C) was 0.4. The “The level of expressed mRNA in the presence of chemical substance/The level of expressed mRNA in the absence of chemical substance” value (yeast gene YMR038C) was 1.1, the “The level of expressed mRNA in the presence of chemical substance/The level of expressed mRNA in the absence of chemical substance” value (yeast gene YNL239W) was 2.1 and the “The level of expressed mRNA in the presence of chemical substance/The level of expressed mRNA in the absence of chemical substance” value (yeast gene YNL241C) was 3.2. For the same compound, the “The level of expressed mRNA in the presence of chemical substance/The level of expressed mRNA in the absence of chemical substance” value (yeast gene YNL259C) was 3.8, the “The level of expressed mRNA in the presence of chemical substance/The level of expressed mRNA in the absence of chemical substance” value (yeast gene YOL158C) was 1.6 and the “The level of expressed mRNA in the presence of chemical substance/The level of expressed mRNA in the absence of chemical substance” value (yeast gene YOR031W) was 1.3. For the same compound, the “The level of expressed mRNA in the presence of chemical substance/The level of expressed mRNA in the absence of chemical substance” value (yeast gene YOR153W) was 2.6, the “The level of expressed mRNA in the presence of chemical substance/The level of expressed mRNA in the absence of chemical substance” value (yeast gene YOR247W) was 0.5 and the “The level of expressed mRNA in the presence of chemical substance/The level of expressed mRNA in the absence of chemical substance” value (yeast gene YOR251C) was 1.0. For the same compound, the “The level of expressed mRNA in the presence of chemical substance/The level of expressed mRNA in the absence of chemical substance” value (yeast gene YOR273C) was 0.4, the “The level of expressed mRNA in the presence of chemical substance/The level of expressed mRNA in the absence of chemical substance” value (yeast gene YPL163C) was 0.4 and the “The level of expressed mRNA in the presence of chemical substance/The level of expressed mRNA in the absence of chemical substance” value (yeast gene YPR200C) was 1.3.
